The source of these data is patent US7498337B2, “Acid secretion inhibitor” (Takeda Pharmaceutical Company Limited, priority 2005, dated 2009).

SMILES strings stand for the structures.

The target of data set [1] is T1, H+,K+-ATPase (gastric mucous membrane microsomal fraction) (Sus scrofa, UniProt P19156).
T1 construct: The obtained microsomal fraction was used as a proton, potassium-adenosine triphosphatase standard product; from tissue; host or cells: swine stomach, gastric mucous membrane microsomal fraction
T1 sequence (P19156 2-1034 limits assumed): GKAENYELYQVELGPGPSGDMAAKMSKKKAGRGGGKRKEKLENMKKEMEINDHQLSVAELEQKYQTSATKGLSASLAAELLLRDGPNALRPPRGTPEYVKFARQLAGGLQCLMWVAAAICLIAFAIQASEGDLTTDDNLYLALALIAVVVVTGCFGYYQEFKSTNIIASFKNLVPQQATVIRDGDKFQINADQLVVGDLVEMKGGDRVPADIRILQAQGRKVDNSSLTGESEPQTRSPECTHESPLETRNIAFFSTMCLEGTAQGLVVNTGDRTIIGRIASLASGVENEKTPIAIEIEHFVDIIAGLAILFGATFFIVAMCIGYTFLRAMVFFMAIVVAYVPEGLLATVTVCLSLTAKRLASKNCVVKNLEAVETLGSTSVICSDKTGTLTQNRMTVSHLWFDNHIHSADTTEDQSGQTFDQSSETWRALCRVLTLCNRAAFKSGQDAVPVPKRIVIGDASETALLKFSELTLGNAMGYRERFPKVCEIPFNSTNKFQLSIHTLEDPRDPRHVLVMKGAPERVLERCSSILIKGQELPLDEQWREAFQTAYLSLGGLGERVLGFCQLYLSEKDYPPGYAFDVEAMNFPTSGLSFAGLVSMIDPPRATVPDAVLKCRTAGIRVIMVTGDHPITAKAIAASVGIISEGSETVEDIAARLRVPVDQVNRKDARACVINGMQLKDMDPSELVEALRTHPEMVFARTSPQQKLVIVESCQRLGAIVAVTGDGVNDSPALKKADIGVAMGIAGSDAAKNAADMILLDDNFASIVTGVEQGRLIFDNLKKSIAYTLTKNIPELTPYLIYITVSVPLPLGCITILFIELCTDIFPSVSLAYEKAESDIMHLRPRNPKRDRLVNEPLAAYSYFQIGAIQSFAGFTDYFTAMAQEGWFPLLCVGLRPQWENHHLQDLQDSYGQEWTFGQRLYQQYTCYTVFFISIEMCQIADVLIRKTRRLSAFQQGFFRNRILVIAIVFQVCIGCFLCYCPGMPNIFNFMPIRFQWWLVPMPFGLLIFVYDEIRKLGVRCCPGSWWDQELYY
T1 sequence (P18434 whole entry partner): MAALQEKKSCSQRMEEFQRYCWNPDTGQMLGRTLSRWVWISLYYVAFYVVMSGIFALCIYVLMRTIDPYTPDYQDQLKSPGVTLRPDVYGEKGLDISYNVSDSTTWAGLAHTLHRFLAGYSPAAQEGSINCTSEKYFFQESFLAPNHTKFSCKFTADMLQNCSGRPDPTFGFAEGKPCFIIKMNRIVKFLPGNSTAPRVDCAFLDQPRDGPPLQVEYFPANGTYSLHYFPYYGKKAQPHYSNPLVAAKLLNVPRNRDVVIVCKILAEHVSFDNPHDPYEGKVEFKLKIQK
The data set can be described thus: Proton potassium-adenosine triphosphatase (H+,K+-ATPase) inhibitory activity test. The class given is biochemical. To be noted: swine gastric microsomal fraction, pH 6.5, 37° C., 30 min preincubation. The protocol: Proton Potassium-Adenosine Triphosphatase (H^+,K^+-ATPase) Inhibitory Activity Test According to the method [Biochim. Biophys. Acta, 728, 31 (1983)] of Wallmark et al., a gastric mucous membrane microsomal fraction was prepared from the stomach of swine. First, the stomach was removed, washed with tap water, immersed in 3 mol/L brine, and the surface of the mucous membrane was wiped with a paper towel. The gastric mucous membrane was detached, chopped, and homogenized in a 0.25 mol/L saccharose solution (pH 6.8) containing 1 mmol/L EDTA and 10 mmol/L tris-hydrochloric acid using polytron (Kinematica). The obtained homogenate was centrifuged at 20,000×g for 30 min and the supernatant was centrifuged at 100,000×g for 90 min. The precipitate was suspended in 0.25 mol/L saccharose solution, superimposed on a 0.25 mol/L saccharose solution containing 7.5% Ficoll, and centrifuged at 100,000×g for 5 hr. The fraction containing the interface between the both layers was recovered, and centrifugally washed with 0.25 mol/L saccharose solution. The obtained microsomal fraction was used as a proton, potassium-adenosine triphosphatase standard product. […] The enzyme reaction was started by adding 5 μL of a 2 mmol/L-adenosine triphosphate tris salt solution (50 mmol/L HEPES-tris buffer (5 mmol/L magnesium chloride, pH 6.5)). The enzyme reaction was carried out at 37° C. for 20 min, and 15 μL of a malachite green solution (0.12% malachite green solution in sulfuric acid (2.5 mol/L), 7.5% ammonium molybdate and 11% Tween 20 were mixed at a ratio of 100:25:2) was added to quench the reaction. […] In addition, the amount of the inorganic phosphoric acid in the reaction solution free of potassium chloride was measured in the same manner, which was subtracted from the inorganic phosphoric acid amount in the presence of potassium chloride to determine the proton, potassium-adenosine triphosphatase activity.

The subject of data set [2] is HepG2 cells. The experiment in a line: Intracellular ATP content in HepG2 cells (cytotoxicity). Type of data set: cell-based, human. To be noted: HepG2, 30 μM, culture for one day, relative value to control, ATPLite, n≧3 average. The protocol:
Human liver cancer-derived cell line HepG2 (ATCC No. HB-8065) was passaged using Dulbecco's Modified Eagle medium (DMEM; Invitrogen) containing 10% fetal bovine serum (FBS; TRACE SCIENTIFIC LTD.), 1 mmol/L sodium pyruvate (Invitrogen), 2 mmol/L L-glutamine (Invitrogen), 50 IU/mL penicillin (Invitrogen) and 50 μg/mL streptomycin (Invitrogen) at 5% CO2, 37° C. The test reagent was prepared with DMSO to 10 mM, and further diluted with DMEM medium containing 0.5% FBS, 1 mmol/L sodium pyruvate, 2 mmol/L L-glutamine, 50 IU/mL penicillin and 50 μg/mL streptomycin to a final concentration of DMSO of 0.1%. HepG2 (2×10^4 cells/well) was cultured on a 96 well white plate (Costar) with the test reagent at 5% CO2, 37° C. After culture for one day, the intracellular ATP content was measured using ATPLite™ (PerkinElmer Life Sciences). The results are shown in Table 24 (n≧3, average value±SD) as a relative value (%) to control (without addition of drug) at 30 μM.
In general terms: In ATP-based viability assays light output follows the ATP content of the culture.

One may read the IC50 as the concentration that gives 50% inhibition. The low end stands for greater potency, the high end for weaker potency. `CNCc1cc(-c2ccccc2F)n(S(=O)(=O)c2cccnc2)c1.O=C(O)/C=C/C(=O)O` [Example 8, 1-[5-(2-fluorophenyl)-1-(pyridin-3-ylsulfonyl)-1H-pyrrol-3-yl]-N-methylmethanamine fumarate]: it took 22 nM to reach half-maximal inhibition in data set [1] (IC50). Besides, in data set [2], the “ATP content (%, 30 μM)” value is reported as 87.9%.

Regarding `CNCc1cc(-c2cccnc2F)n(S(=O)(=O)c2cccnc2)c1.O=C(O)/C=C/C(=O)O` [Example 74, 1-[5-(2-fluoropyridin-3-yl)-1-(pyridin-3-ylsulfonyl)-1H-pyrrol-3-yl]-N-methylmethanamine fumarate], in data set [1], the 50% inhibitory concentration (IC50) stood at 210 nM. For the same molecule, the “ATP content (%, 30 μM)” value in data set [2] is 95.2%.

Turning to `CNCc1cc(-c2ccccc2)n(S(=O)(=O)c2cnc(NC)nc2)c1.Cl` [Example 5, N-methyl-1-{1-[2-(methylamino)pyrimidin-5-ylsulfonyl]-5-phenyl-1H-pyrrol-3-yl}methanamine hydrochloride], the midpoint of inhibition in data set [1], the IC50, lay at 65 nM. Moreover, the “ATP content (%, 30 μM)” value in data set [2] was 73.9%.

With `CNCc1cc(-c2ccccc2C)n(S(=O)(=O)c2cccnc2)c1.O=C(O)/C=C/C(=O)O` [Example 47, N-methyl-1-[5-(2-methylphenyl)-1-(pyridin-3-ylsulfonyl)-1H-pyrrol-3-yl]methanamine fumarate], it took 58 nM to reach half-maximal inhibition in data set [1] (IC50). The “ATP content (%, 30 μM)” value in data set [2] is listed as 81.8%.

In the case of `CNCc1cc(-c2ccc(F)cc2F)n(S(=O)(=O)c2cccnc2)c1.Cl.Cl` [Example 32, 1-[5-(2,4-difluorophenyl)-1-(pyridin-3-ylsulfonyl)-1H-pyrrol-3-yl]-N-methylmethanamine dihydrochloride], 8.9 nM corresponded to half-maximal inhibition in data set [1] (IC50). Further, the “ATP content (%, 30 μM)” value in data set [2] came out at 53.6%.

In data set [1], `CNCc1cc(-c2cscc2C)n(S(=O)(=O)c2cccnc2)c1.Cl.Cl` [Example 29, N-methyl-1-[5-(4-methyl-3-thienyl)-1-(pyridin-3-ylsulfonyl)-1H-pyrrol-3-yl]methanamine dihydrochloride] displayed an IC50 of 41 nM. In addition, the “ATP content (%, 30 μM)” value in data set [2] stood at 71.5%.

On to `CNCc1cc(-c2ccccc2F)n(S(=O)(=O)c2ccc(C)nc2)c1.Cl.Cl` [Example 44, 1-{5-(2-fluorophenyl)-1-[(6-methylpyridin-3-yl)sulfonyl]-1H-pyrrol-3-yl}-N-methylmethanamine dihydrochloride], for which, in data set [1], the IC50 worked out at 48 nM. In addition, in data set [2], the “ATP content (%, 30 μM)” value came to 78.5%.

As for `CNCc1cn(S(=O)(=O)c2cccnc2)c(-c2ccccc2)c1F.Cl.Cl` [Example 41, 1-[4-fluoro-5-phenyl-1-(pyridin-3-ylsulfonyl)-1H-pyrrol-3-yl]-N-methylmethanamine dihydrochloride], in data set [1], the IC50 was determined as 43 nM. In addition, in data set [2], the “ATP content (%, 30 μM)” value was determined as 86.7%.

For the molecule `CNCc1cc(-c2ccccc2)n(S(=O)(=O)c2ccc(OC)nc2)c1.Cl` [Example 2, 1-{1-[(6-methoxypyridin-3-yl)sulfonyl]-5-phenyl-1H-pyrrol-3-yl}-N-methylmethanamine hydrochloride], inhibition in data set [1] was half-maximal at 13 nM (IC50). Also, the “ATP content (%, 30 μM)” value in data set [2] amounted to 45.2%.

In data set [1], `CNCc1cc(-c2ccccc2)n(S(=O)(=O)c2cnc(C)nc2)c1.Cl.Cl` [Example 7, N-methyl-1-[1-(2-methylpyrimidin-5-ylsulfonyl)-5-phenyl-1H-pyrrol-3-yl]-methanamine dihydrochloride] gave an IC50 of 34 nM. Moreover, the “ATP content (%, 30 μM)” value in data set [2] is reported as 76.5%.
